Tested on: Coptotermes formosanus
Test: Termiticidal activity against Coptotermes formosanus assessed as mortality at 5 uM up to 14 days by no choice test relative to control
Assay type: functional
Settings: 336 h

Row | SMILES | mortality at 5 µM [%]
1 | CCCCCCCCCCCCOc1ccc2ccc(=O)oc2c1 [7-DODECYLOXYCOUMARIN] | 19.2
2 | O=c1ccc2ccc(OC3CCCCC3)cc2o1 [7-CYCLOHEXYLOXYCOUMARIN] | 65.7
3 | CCC#CCOc1ccc2ccc(=O)oc2c1 [7-(2-PENTYNYLOXY)COUMARIN] | 32.3
4 | O=c1ccc2ccc(OCc3ccccc3)cc2o1 [7-BENZYLOXYCOUMARIN] | 23.2
5 | CCCCOc1ccc2ccc(=O)oc2c1 [7-BUTOXYCOUMARIN] | 19.2
6 | CCOc1ccc2ccc(=O)oc2c1 [ETHOXYCOUMARIN] | 14.1
7 | CC(C)COc1ccc2ccc(=O)oc2c1 [7-ISOBUTOXYCOUMARIN] | 9.1
8 | CCCOc1ccc2ccc(=O)oc2c1 [7-PROPOXYCOUMARIN] | 16.2
9 | C/C=C/COc1ccc2ccc(=O)oc2c1 [(E)-7-(2-BUTENYLOXY)COUMARIN] | 33.3
10 | O=c1ccc2ccc(OCCCc3ccccc3)cc2o1 [7-(3-PHENYLPROPOXY)COUMARIN] | 16.2
11 | CC(C)Oc1ccc2ccc(=O)oc2c1 [7-ISOPROPOXYCOUMARIN] | 13.1
12 | COc1ccc2ccc(=O)oc2c1 [HERNIARIN] | 13.1
13 | CCCCCCCCCCCCCCCCCCOc1ccc2ccc(=O)oc2c1 [7-OCTADECYLOXYCOUMARIN] | 8.1
14 | COc1cc(COc2ccc3ccc(=O)oc3c2)cc(OC)c1 [7-(3,5-DIMETHOXYBENZYLOXY)COUMARIN] | 32.3
15 | CC#CCOc1ccc2ccc(=O)oc2c1 [7-(2-BUTYNYLOXY)COUMARIN] | 51.5
16 | C=CCOc1ccc2ccc(=O)oc2c1 [7-ALLYLOXYCOUMARIN] | 38.4
17 | CCCCCCCCOc1ccc2ccc(=O)oc2c1 [7-OCTYLOXYCOUMARIN] | 17.2
18 | CCCCCCCCCCCCCCCCOc1ccc2ccc(=O)oc2c1 [7-HEXADECYLOXYCOUMARIN] | 3
19 | CCCCCC#CCOc1ccc2ccc(=O)oc2c1 [7-(2-OCTYNYLOXY)COUMARIN] | 28.3
20 | O=c1ccc2ccc(Oc3ccc([N+](=O)[O-])cc3)cc2o1 [7-(4-NITROPHENOXY)COUMARIN] | 62.6
21 | O=c1ccc2ccc(OCCc3ccccc3)cc2o1 [7-PHENETHOXYCOUMARIN] | 10.1
22 | O=C(/C=C/c1ccccc1)Oc1ccc2ccc(=O)oc2c1 [7-CINNAMOYLOXYCOUMARIN] | 12.1
23 | COc1ccc(COc2ccc3ccc(=O)oc3c2)cc1 | 41.4

Reference: ChEMBL document CHEMBL3045619, “Antitermite activity of 7-alkoxycoumarins and related analogs against Coptotermes formosanus Shiraki” (2012)
